# Experimental data: US10294202B2, “Pyrrolidinones as herbicides” (FMC Corporation, priority 2013, dated 2019)
# Columns and labels:
# [1] = system: wheat (winter wheat); test: Test C pre-/postemergence herbicide test; format: in vivo, Triticum aestivum
# Method in brief: (§1)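 Response scores range from 0, meaning no effect, to 100, meaning complete control, assigned visually by comparison with controls roughly two weeks (13 to 15 days) after spraying. Applications were made preemergence to seeded loam–sand soil and postemergence to 1- to 4-leaf plants.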
# [2] = system: rice; test: Test B flooded paddy test; format: in vivo, Oryza sativa; conditions: 500 g ai/ha, Flood; scale of 0 to 100 where 0 is no effect and 100 is complete control
# Method in brief: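 Treatment was made at the 2-leaf stage by dosing the standing floodwater, kept 3 cm above soil level for the whole test. Greenhouse exposure lasted 13 to 15 days. Response is a visual percent rating relative to controls, where a dash indicates no test result.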
# [3] = system: pigweed; test: Test C pre-/postemergence herbicide test; format: in vivo, Amaranthus retroflexus
# Method in brief: as §1
# [4] = system: foxtail, giant; test: Test C pre-/postemergence herbicide test; format: in vivo, Setaria faberii
# Method in brief: as §1
# [5] = system: wheat; test: Test A pre-/postemergence herbicide test; format: in vivo, Triticum aestivum; conditions: Postemergence
# Method in brief: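 Scoring was visual, relative to untreated controls, on a 0–100 scale after about 10 greenhouse days. Preemergence treatment used a directed soil spray over seeded loam/sand; postemergence treatment targeted one- to two-leaf plants of 2–10 cm.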
# [6] = system: galium; test: Test C pre-/postemergence herbicide test; format: in vivo, Galium aparine
# Excerpt: Seeds of plant species selected from blackgrass (Alopecurus myosuroides), ryegrass, Italian (Italian ryegrass, Lolium multiflorum), wheat (winter wheat, Triticum aestivum), galium (catchweed bedstraw, Galium aparine), corn (Zea mays), crabgrass, large (large crabgrass, Digitaria sanguinalis), foxtail, giant (giant foxtail, Setaria faberii), johnsongrass (Sorghum halepense), lambsquarters (Chenopodium album), morningglory (Ipomoea coccinea), nutsedge, yellow (yellow nutsedge, Cyperus esculentus), pigweed (Amaranthus retroflexus), ragweed (common ragweed, Ambrosia elatior), soybean (Glycine max), barnyardgrass (Echinochloa crus-galli), oilseed rape (Brassica napus), waterhemp (common waterhemp, Amaranthus rudis), kochia (Kochia scoparia), oat, wild (wild oat, Avena fatua), surinam grass (Brachiaria decumbens), foxtail, green (green foxtail, Setaria viridis), goosegrass (Eleusine indica), bromegrass, downy (downy bromegrass, Bromus tectorum), nightshade (eastern black nightshade, Solanum ptycanthum), cocklebur (common cocklebur, Xanthium strumarium), cupgrass, woolly (woolly cupgrass, Eriochloa villosa), bermudagrass (Cynodon dactylon), sunflower, (common oilseed sunflower, Helianthus annuus), Russian thistle (Salsola kali) and velvetleaf (Abutilon theophrasti) were planted into a blend of loam soil and sand and treated preemergence with test chemicals formulated in a non-phytotoxic solvent mixture which included a surfactant. At the same time, plants selected from these crop and weed species and also barley (winter barley, Hordeum vulgare), […]), chickweed (common chickweed, Stellaria media), deadnettle (henbit deadnettle, Lamium amplexicaule), and canarygrass (littleseed canarygrass, Phalaris minor) were planted in pots containing Redi-Earth® planting medium (Scotts Company, 14111 Scottslawn Road, Marysville, Ohio 43041) comprising spaghnum peat moss, vermiculite, wetting agent and starter nutrients and treated with postemergence applications of test chemicals formulated in the same manner. Plants ranged in height from 2 to 18 cm (1- to 4-leaf stage) for postemergence treatments. Treated plants and controls were maintained in a greenhouse for 13 to 15 days, after which time all species were compared to controls and visually evaluated. Plant response ratings, summarized in Table C, are based on a scale of 0 to 100 where 0 is no effect and 100 is complete control. A dash (-) response means no test result.
# [7] = Postemergence, 31 g ai/ha, scale 0 to 100 (0 no effect, 100 complete control)
# [8] = Postemergence, 62 g ai/ha, scale 0 (no effect) to 100 (complete control)
# [9] = Postemergence, 125 g ai/ha, scale 0 to 100 (0 no effect, 100 complete control)
# [10] = Postemergence, 250 g ai/ha, scale 0 to 100 (0 no effect, 100 complete control)
# [11] = Preemergence, 31 g ai/ha, scale 0 to 100, 0 is no effect and 100 is complete control
# [12] = Preemergence, 62 g ai/ha, scale 0 to 100 (0 no effect, 100 complete control)
# [13] = Preemergence, 125 g ai/ha, scale 0 to 100 (0 no effect, 100 complete control)
# [14] = 125 g ai/ha, visual rating on 0 to 100 scale (0 no effect, 100 complete control), approx. 10 days
# [15] = 500 g ai/ha, 0 to 100 scale (0 no effect, 100 complete control)
# [16] = Preemergence, 125 g ai/ha, scale 0 to 100
SMILES,"Plant response rating, Wheat [1, 7]","Plant response rating, Wheat [1, 8]","Plant response rating, Wheat [1, 9]","Plant response rating, Wheat [1, 10]","Wheat plant response rating [1, 12]","Plant response rating, Rice [2]","Plant response rating, Pigweed [3, 7]","Plant response rating, Pigweed [3, 8]","Plant response rating, Pigweed [3, 9]","Plant response rating, Pigweed [3, 10]","Pigweed plant response rating [3, 11]","Pigweed plant response rating [3, 12]","Plant response rating, Foxtail, Giant [4, 7]","Plant response rating, Foxtail, Giant [4, 8]","Plant response rating, Foxtail, Giant [4, 9]","Plant response rating, Foxtail, Giant [4, 10]","Foxtail, Giant plant response rating [4, 11]","Foxtail, Giant plant response rating [4, 12]","Plant response rating (scale of 0 to 100), Foxtail, Giant ([4]; Preemergence, 250 g ai/ha)","Plant response rating, Wheat [5, 14]",further results
O=C1NCC(c2cc(F)cc(F)c2)C1C(=O)Nc1ccc(F)cc1F (racemic) [Compound 278],0,0,0,0,0,0,0,5,15,15,5,0,10,10,40,75,80,90,100,0,"Wheat plant response rating [1, 11]: 0; Plant response rating (scale of 0 to 100), Wheat ([1]; Preemergence, 250 g ai/ha): 0; Plant response rating, Pigweed [3, 13]: 0; Plant response rating (scale of 0 to 100), Pigweed ([3]; Preemergence, 250 g ai/ha): 0; Plant response rating, Foxtail, Giant [4, 13]: 95; Plant response rating, Wheat [5, 15]: 0; Plant response rating, Galium [6, 7]: 0; Plant response rating, Galium [6, 8]: 0; Plant response rating, Galium [6, 9]: 5; Plant response rating, Galium [6, 10]: 20; Galium plant response rating [6, 11]: 0; Galium plant response rating [6, 12]: 0; Plant response rating, Galium [6, 13]: 0; Plant response rating (scale of 0 to 100), Galium ([6]; Preemergence, 250 g ai/ha): 5"
O=C1NCC(c2cccc(OC(F)F)c2)C1C(=O)Nc1ccc(F)c(F)c1F (centres unmarked) [Compound 325],0,0,0,5,40,20,40,55,50,65,65,65,0,35,65,75,90,95,95,60,"Plant response rating, Wheat [1, 16]: 65; Plant response rating, Pigweed [3, 16]: 75; Plant response rating, Foxtail, Giant [4, 16]: 98; Plant response rating, Wheat [5, 15]: 80; Galium plant response rating [6, 11]: 0; Galium plant response rating [6, 12]: 20; Plant response rating, Galium [6, 16]: 50; Plant response rating (scale of 0 to 100), Galium ([6]; Preemergence, 250 g ai/ha): 80"
